Patent US20040176294A1, “Use of thyroid-stimulating hormone to induce lipolysis” (priority 2003, published 2004)

Key:
human primary adipocytes = experiment: CRE-luciferase reporter (cAMP) assay in primary human adipocytes; format: cell-based; settings: 4 hours
From the text: (§1) 3T3 L1 fibroblasts were differentiated into adipocytes and the cells were transduced with recombinant adenovirus containing a reporter construct, a firefly luciferase gene under the control of cAMP response element (CRE) enhancer sequences. This assay system detects cAMP-mediated gene induction downstream of activation of Gs-coupled G-protein coupled receptors (GPCR's). […] In a separate experiment, undifferentiated 3T3 L1 fibroblasts were transduced with the recombinant adenovirus. […] In another experiment, human primary adipocytes were also transduced with the recombinant adenovirus containing a reporter construct.
(§2) Cells were cultured at 37° C. in an 8% CO2 humidified incubator. Cells were seeded in collagen-coated 96-well plates (Becton Dickinson, cat. # 356407) at a density of 5,000 cells per well. Two days later, differentiation medium was added as follows: DMEM high glucose containing 10% fetal bovine serum (Hyclone, cat. # SH30071), 1 μg/ml insulin, 1 μM dexamethasone, and 0.5 mM 3-isobutyl-methyl xanthine (ICN, cat. #195262). The cells were incubated at 37° C. in 8% CO2 for 4 days and the medium replaced with DMEM high glucose containing 10% fetal bovine serum and 1 μg/ml insulin. The cells were incubated at 37° C. in 8% CO2 for 3 days, then the medium was replaced with DMEM high glucose containing 10% fetal bovine serum.

[1] = system: differentiated 3T3 L1 adipocytes; experiment: CRE-luciferase reporter (cAMP) assay in differentiated 3T3 L1 adipocytes; format: cell-based, murine; settings: differentiated 3T3 L1 cells, 4 hours
From the text: as §1, §2

male ob/ob mice [2] = experiment: Chronic treatment of ob/ob mice: adipose tissue depot mass; format: in vivo; settings: after 4 weeks of treatment, n=4
Method: (§3) 11-week old male ob/ob mice were individually caged and given a standard lab chow (4% fat) with free access to food and water. Animals were assigned to a treatment group (n=7-8, average weight 54.3+/−0.3 g per group), kept on a 12 hour dark cycle (6 PM to 6 AM), and injected each day between 7 and 9 AM. Chow consumed by each animal was weighed twice weekly. All animals received treatments IP with an injection volume of 0.1 ml. […] Thyroid hormone (T4) was administered at 1.5 μg/mouse for 4 days, reduced to 1 [μg/mouse for 10 days, and returned to 1.5 μg/mouse for the next 14 days. The vehicle controls received sterile saline.
Four animals from each group were analyzed for evaluation of changes in adipose tissue depot mass after 4 weeks of treatment. Following sacrifice, brown scapular fat (IBAT) and intra-abdominal fat were dissected and the tissues weighed. […] Elevated thyroid hormone levels are known to act to stimulate]BAT. […] The mesangial fat depot was dissected and removed from the colon for weight determination. Mesangial fat is white adipose tissue and is only readily visualized and dissected in obese mice. Mesangial white fat was removed by carefully stripping the fat, associated matrix and vascular supporting bed from the length of the colon.

male ob/ob mice [3] = experiment: Chronic treatment of ob/ob mice: serum lipid analysis; format: in vivo; settings: 5 weeks of treatment, fasted 4 hours
Method: as §3
The study set used for the IPGTT was treated an additional 7 days before sacrifice (total treatment time of 5 weeks). Subject animals were fasted for 4 hours at the beginning of the light cycle, and serum was obtained at sacrifice under isoflurane anesthesia. Triglyceride and total cholesterol levels were determined with the Cholestech LDX blood analyzer (Cholestech Corporation, Hayward Calif.).

male ob/ob mice [4] = experiment: Chronic treatment of ob/ob mice: liver steatosis histology score; format: in vivo; settings: H&E sections, n=4, vehicle score 4
Method: as §3
Liver sections were dissected from all treatment groups described above and mounted in paraffin following fixation with NBS-formalin. Sections were mounted and stained with hematotoxylin and eosin (H&E) for visualization of hepatic structural changes. The extent of liver steatosis was evaluated on a four-point scale, […], with zero displaying no signs of liver steatotosis, and 4, representing pronounced macrovesicular and microvesicular steatosis.

male ob/ob mice [5] = experiment: Chronic treatment of ob/ob mice: body weight and food intake; format: in vivo; settings: daily IP treatment, 28 days
Method: as §3
Body weight changes were assessed as the percentage increase in body weight from the beginning of the study.

male ob/ob mice [6] = experiment: Chronic treatment of ob/ob mice: intraperitoneal glucose tolerance test (IPGTT); format: in vivo; settings: 4 weeks of treatment; for baseline blood glucose: fasted four hours, n=4; for insulin sensitivity and glucose clearance versus vehicle: IPGTT glucose […]
Method: as §3
Following 4 weeks of daily treatment as described above, mice (n=4/group) were fasted for four hours immediately following the beginning of the light cycle, and a blood sample obtained before IP injection of a glucose solution (1.5 g/kg body weight). Blood samples were obtained at 20, 40, and 120 minutes following injection to evaluate changes in serum glucose and insulin. Glucose concentrations were determined with a Freestyle blood glucose monitor (Therasense Corp.), and insulin concentrations were determined with a commercial ELISA kit (Alpco Diagnostics, Windham N. H.).

in vivo = experiment: in vivo; design: species or system mice; settings: male, ob/ob, mouse
Method: as §3
(§4) After 25 days of treatment as described above, blood was sampled from all treated animals (n=7-8/group), serum separated, and analyzed for total T4 by a commercially available kit (Biocheck, Burlingame, Calif.).

male ob/ob mice [7] = experiment: Acute stimulation of lipolysis in vivo (serum glycerol and FFA); settings: CL 1 mg/kg IP
Method: TSH, the β3-adrenoreceptor agonist CL 316,243 (CL), and saline vehicle were examined for stimulation of lipolysis in mice following an overnight fast. […] Lipolysis was assessed as the change in serum glycerol or FFA compared to baseline.
C57BL/6 male ob/ob mice, age 10 weeks, were grouped to normalize weight (n=7-8 for each treatment; average group weight=37.8 g+/−0.4 g). Mice were housed individually for 18 hours prior to treatment, at which time food was withdrawn, with free access to water given. At approximately 8 a.m., the subjects were anesthetized with halothane and blood samples taken by retro-orbital eye bleeds. The blood was allowed to clot, and the serum was separated by centrifugation and frozen for later analysis. Test substances were administered by IP injection in a volume of 0.1 ml, and the animals replaced in their cages for 2 hours with free access to water. At 2 hours, the mice were sacrificed and blood drawn by cardiac puncture.
For measuring free fatty acids in serum, the method previously described for measuring free fatty acids in conditioned medium was followed, with the following modifications. […] The absorbance at 530 nm was measured on the Wallac Victor2 Multilabel counter. […]
Sigma reagent A was reconstituted to 0.5× the recommended concentration. […] The absorbance at 530 nm was measured on the Wallac Victor2 Multilabel counter.

male ob/ob mice [8] = experiment: in vivo; settings: mouse
Method: as §3, §4

Row | Structure (SMILES) | induction of luciferase expression / reporter gene (human primary adipocytes) [fold] | induction of luciferase expression [1] [fold] | brown scapular fat (IBAT) mass (male ob/ob mice [2]) [g] | mesangial white fat depot weight (male ob/ob mice [2]) [g] | serum triglyceride (male ob/ob mice [3]) [mg/dL] | total cholesterol (male ob/ob mice [3]) [mg/dL] | average liver steatosis score (male ob/ob mice [4]) | percentage increase in body weight from the beginning of the study (male ob/ob mice [5]) | baseline blood glucose (male ob/ob mice [6]) [mg/dL] | insulin sensitivity and glucose clearance versus vehicle (male ob/ob mice [6]) | concentration at 25 days (in vivo) [ng/mL] | serum glycerol and FFA levels (male ob/ob mice [7]) | total T4 in serum (male ob/ob mice [8]) [µg/dL]
1 | CC(C)NCC(O)c1ccc(O)c(O)c1 (centres unmarked) [isoproterenol] | 22 | 50 |  |  |  |  |  |  |  |  |  |  | 
2 | N[C@@H](Cc1cc(I)c(Oc2cc(I)c(O)c(I)c2)c(I)c1)C(=O)O [thyroxine] |  |  | 1.26 ± 0.03 | 1.18 ± 0.11 | 297 ± 30 | 231 ± 11 | 3 | 9.4+/−0.5% | 252 ± 34 | did not exhibit increased glucose clearance | 90.4 |  | 
3 | C[C@H](Cc1ccc2c(c1)OC(C(=O)[O-])(C(=O)[O-])O2)NC[C@H](O)c1cccc(Cl)c1.[Na+].[Na+] [CL 316,243] |  |  | 0.87 ± 0.03 | 1.53 ± 0.10 | 191 ± 9 | 198 ± 7 | 1 |  | 139 ± 9 | exhibited increased insulin sensitivity and increased clearance of the glucose load |  | significantly elevated serum glycerol and FFA levels | 5.14 ± 0.19
